B1: NK-lysin (protein, UniProt P22749 23-145, looked up)
Granulysin: RLSPEYYDLARAHLRDEEKSCPCLAQEGPQGDLLTKTQELGRDYRTCLTIVQKLKKMVDKPTQRSVSNAATRVCRTGRSRWRDVCRNFMRRYQSRVTQGLVAGETAQQICEDLRLCIPSTGPL
notes: Human cytolitic peptide which directly kills the target cells

Tests used:
tumor = experiment: Combination with bleomycin: tumor growth and life span; settings: in vivo
Excerpt: As for interferons, interleucins and other known immunomoludatory materials, the efficacy of the pharmaceutical preparations of the present invention is restricted by the basic capacity of the immune system to recognize and attack cancer cells. However, the efficacy may be enhanced when the pharmaceutical preparations are combined with other antitumor drugs.

[1] = tested on: human and mouse lymphocytes; experiment: Active principle: stimulation of lymphocytes' cytotoxic anticancer activity in vitro; assay type: cell-based; settings: comparative analysis of minimum active concentrations

| Molecule | Effect on tumor growth and life span (tumor) | Concentration to enhance cancer cell destruction relative to the effective concentration of the active principle [1] |
| --- | --- | --- |
| bleomycin | much less effective | – |
| B1 | – | more than a million times |
